PubChem BioAssay AID1963837 (Molecular Pharmacology Branch, DTP, NCI, 2024)

Test system: 843126-344-R-J1-PDC complex spheroid viability
Experiment: Anticancer human tumor 843126-344-R-J1-PDC patient-derived melanoma cell line growth inhibition [POLQ]
Conditions: for IC50: curve of first compound; for viability, T/C: stronger effect = lower value
Summary of the method: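 Patient-derived tumour cells were co-cultured with HUVEC and mesenchymal stem cells as multicellular spheroids at 37 °C. They were treated with POLQ inhibitors (novobiocin, ART-558, RP6685) alone or combined with other agents. Top concentrations were at or near clinical Cmax (otherwise 10 microM; SN-38 at 1 microM), decreasing in half-log steps.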

[1] = second compound 0.0316 µM, first compound 0.0316 µM
[2] = second compound 0.0316 µM, first compound 0.1 µM
[3] = second compound 0.0316 µM, first compound 0.316 µM
[4] = second compound 0.0316 µM, first compound 1 µM
[5] = second compound 0.0316 µM, first compound 3.16 µM
[6] = second compound 0.0316 µM, first compound 10 µM
[7] = second compound 0.1 µM, first compound 0.0316 µM
[8] = second compound 0.1 µM, first compound 0.1 µM
[9] = second compound 0.1 µM, first compound 0.316 µM
[10] = second compound 0.1 µM, first compound 1 µM
[11] = second compound 0.1 µM, first compound 3.16 µM
[12] = second compound 0.1 µM, first compound 10 µM
[13] = second compound 0.316 µM, first compound 0.0316 µM
[14] = second compound 0.316 µM, first compound 0.1 µM
[15] = second compound 0.316 µM, first compound 0.316 µM
[16] = second compound 0.316 µM, first compound 1 µM
[17] = second compound 0.316 µM, first compound 3.16 µM
[18] = second compound 0.316 µM, first compound 10 µM
[19] = second compound 1 µM, first compound 0.0316 µM
[20] = second compound 1 µM, first compound 0.1 µM
[21] = second compound 1 µM, first compound 0.316 µM
[22] = second compound 1 µM, first compound 1 µM
[23] = second compound 1 µM, first compound 3.16 µM
[24] = second compound 1 µM, first compound 10 µM
[25] = second compound 3.16 µM, first compound 0.0316 µM
[26] = second compound 3.16 µM, first compound 0.1 µM
[27] = second compound 3.16 µM, first compound 0.316 µM
[28] = second compound 3.16 µM, first compound 1 µM
[29] = second compound 3.16 µM, first compound 3.16 µM
[30] = second compound 3.16 µM, first compound 10 µM
[31] = second compound 10 µM, first compound 0.0316 µM
[32] = second compound 10 µM, first compound 0.1 µM
[33] = second compound 10 µM, first compound 0.316 µM
[34] = second compound 10 µM, first compound 1 µM
[35] = second compound 10 µM, first compound 3.16 µM
[36] = second compound 10 µM, first compound 10 µM
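Throughout, for viability, T/C: spheroids exposed to drugs for seven days before readout.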

C=CC(=O)N1CCN(c2nc(=O)n(-c3c(C)ccnc3C(C)C)c3nc(-c4c(O)cccc4F)c(F)cc23)C(C)C1 (stereo unspecified) + Cc1cccc(N(C)C(=O)C2C(O)CCN2c2nc(C)cc(C(F)(F)F)c2C#N)c1
IC50 (second compound 0.0316 µM): > 10 µM | IC50 (second compound 0.1 µM): > 10 µM | IC50 (second compound 0.316 µM): > 10 µM | IC50 (second compound 1 µM): > 10 µM | IC50 (second compound 3.16 µM): > 10 µM | IC50 (second compound 10 µM): > 10 µM | viability, T/C [1]: 87.6% | viability, T/C [2]: 95.2% | viability, T/C [3]: 122% | viability, T/C [4]: 94.6% | viability, T/C [5]: 89.6% | viability, T/C [6]: 78.6% | viability, T/C [7]: 81.8% | viability, T/C [8]: 81.3% | viability, T/C [9]: 94.7% | viability, T/C [10]: 97% | viability, T/C [11]: 80.7% | viability, T/C [12]: 80.7% | viability, T/C [13]: 81.3% | viability, T/C [14]: 85.6% | viability, T/C [15]: 91.1% | viability, T/C [16]: 107% | viability, T/C [17]: 84% | viability, T/C [18]: 69.9% | viability, T/C [19]: 89.7% | viability, T/C [20]: 84.7% | viability, T/C [21]: 84.2% | viability, T/C [22]: 90.2% | viability, T/C [23]: 106% | viability, T/C [24]: 71.3% | viability, T/C [25]: 91.2% | viability, T/C [26]: 74.5% | viability, T/C [27]: 104% | viability, T/C [28]: 91.5% | viability, T/C [29]: 120% | viability, T/C [30]: 66.8% | viability, T/C [31]: 77.1% | viability, T/C [32]: 81% | viability, T/C [33]: 89.2% | viability, T/C [34]: 89.5% | viability, T/C [35]: 83.5% | viability, T/C [36]: 70.1%

CC1COCCN1c1cc(C2(O)CC3CCC(C2)O3)c2cnn(-c3ccn[nH]3)c2n1 (stereo unspecified) + Cc1cccc(N(C)C(=O)C2C(O)CCN2c2nc(C)cc(C(F)(F)F)c2C#N)c1
IC50 (second compound 0.0316 µM): 0.487 µM | IC50 (second compound 0.1 µM): 0.47 µM | IC50 (second compound 0.316 µM): 0.58 µM | IC50 (second compound 1 µM): 0.385 µM | IC50 (second compound 3.16 µM): 0.64 µM | IC50 (second compound 10 µM): 0.763 µM | viability, T/C [1]: 95.7% | viability, T/C [2]: 78.6% | viability, T/C [3]: 48.2% | viability, T/C [4]: 44.8% | viability, T/C [5]: 31% | viability, T/C [6]: 20.7% | viability, T/C [7]: 84.6% | viability, T/C [8]: 66% | viability, T/C [9]: 58.5% | viability, T/C [10]: 40.1% | viability, T/C [11]: 28.5% | viability, T/C [12]: 22.2% | viability, T/C [13]: 85.6% | viability, T/C [14]: 74.9% | viability, T/C [15]: 51.3% | viability, T/C [16]: 45.2% | viability, T/C [17]: 34% | viability, T/C [18]: 19.2% | viability, T/C [19]: 99.3% | viability, T/C [20]: 62.8% | viability, T/C [21]: 56.9% | viability, T/C [22]: 40.8% | viability, T/C [23]: 32.7% | viability, T/C [24]: 21% | viability, T/C [25]: 91.2% | viability, T/C [26]: 80.5% | viability, T/C [27]: 51.5% | viability, T/C [28]: 47.5% | viability, T/C [29]: 33.2% | viability, T/C [30]: 20.6% | viability, T/C [31]: 87.7% | viability, T/C [32]: 82.8% | viability, T/C [33]: 63.8% | viability, T/C [34]: 45.2% | viability, T/C [35]: 29.3% | viability, T/C [36]: 17.7%

CCc1cc2c(N3CCc4c(cc(Cn5ccnc5)cc4-c4cn(C)nc4C(F)(F)F)C3=O)cc(C)nc2c(OC)n1 + Cc1cccc(N(C)C(=O)C2C(O)CCN2c2nc(C)cc(C(F)(F)F)c2C#N)c1
IC50 (second compound 0.0316 µM): > 10 µM | IC50 (second compound 0.1 µM): > 10 µM | IC50 (second compound 0.316 µM): > 10 µM | IC50 (second compound 1 µM): > 10 µM | IC50 (second compound 3.16 µM): > 10 µM | IC50 (second compound 10 µM): > 10 µM | viability, T/C [1]: 90.8% | viability, T/C [2]: 92.8% | viability, T/C [3]: 80.9% | viability, T/C [4]: 77.7% | viability, T/C [5]: 72.4% | viability, T/C [6]: 61.9% | viability, T/C [7]: 99% | viability, T/C [8]: 88.5% | viability, T/C [9]: 79% | viability, T/C [10]: 79.9% | viability, T/C [11]: 71.5% | viability, T/C [12]: 64.1% | viability, T/C [13]: 94.3% | viability, T/C [14]: 93.2% | viability, T/C [15]: 82.4% | viability, T/C [16]: 72.3% | viability, T/C [17]: 69.8% | viability, T/C [18]: 62.3% | viability, T/C [19]: 85.4% | viability, T/C [20]: 89.5% | viability, T/C [21]: 77.3% | viability, T/C [22]: 70% | viability, T/C [23]: 75.5% | viability, T/C [24]: 63.8% | viability, T/C [25]: 90.8% | viability, T/C [26]: 86% | viability, T/C [27]: 87.7% | viability, T/C [28]: 70.9% | viability, T/C [29]: 77.8% | viability, T/C [30]: 56.8% | viability, T/C [31]: 92% | viability, T/C [32]: 79.9% | viability, T/C [33]: 80% | viability, T/C [34]: 74.2% | viability, T/C [35]: 82.5% | viability, T/C [36]: 54.4%
